Laboratory results reported in patent publication US5922727A, “Antiviral substituted pyrimidinedione homocarbocyclic nucleoside derivatives and methods for the preparation thereof and compositions containing the same as active ingredients” (Samjin Pharmaceutical Co., Ltd, priority 1996, dated 1999).
Like-named read-outs stand apart in the source and are kept apart here.

Legend:
[1] = system: HIV; assay type: cell-based; settings: ratio CD50/ED50
Method: (§1) The anti-HIV assays were based on the inhibition of the virus-induced cytopathic effect in MT-4 cells as a described method in J. Med. Chem, 34, 357, 1991. Briefly, MT-4 cells were suspended in culture medium at 2.5×10^5 cells/ml and infected with 1000 CCID50 (50% cell culture infective dose) of HIV. Immediately, after virus infection, 100 μl of the cell suspension was brought into each well of a flat-bottomedmicrotitray containing various concentrations of the test compounds. After a 4 or 5 days incubation at 37° C., the number of viable cells was determined by the 3-(4,5-dimethylthiazol-2-yl)-2,5-diphenyltetrazolium bromide (MTT) method, as disclosed in J. Virol. Methods, 20, 309, 1988. The cytotoxicity of the compounds of the present invention was assessed in parallel with their antiviral activity. It was based on the viability of mock-infected host cells as determined by the MTT methods.

[2] = system: MT-4 cells; assay: cytotoxicity: viability of mock-infected MT-4 host cells (MTT method); assay type: cell-based; set-up: unit not given here; settings: mock-infected MT-4 cells
Method: as §1

[3] = marker a (undefined, shared with AZT^a)
[4] = marker b (undefined, shared with AZT^b)
[5] = marker c (undefined, shared with AZT^c)
[6] = marker d (undefined, shared with AZT^d)
[7] = marker e (undefined, shared with AZT^e)

With `Cc1cn([C@H]2C[C@H](N=[N+]=[N-])[C@@H](CO)O2)c(=O)[nH]c1=O` [AZT, reference compound] the S.I. [1, 3] was 5,825, the S.I. [1, 4] was 1,123 and the S.I. [1, 5] was 83. The S.I. [1, 6] was 5,500, the S.I. [1, 7] was 3,172 and the S.I. ([1]; no run marker) was 2,633. It also gave a CD50 [2, 3] of 1.13, a CD50 [2, 4] of 0.73 and a CD50 [2, 5] of 0.057. The CD50 [2, 6] was 2.75, the CD50 [2, 7] was 1.84 and the CD50 ([2]; no run marker) was 1.58.

`CCc1c(Sc2cc(C)cc(C)c2)n(CC2CC=CC2)c(=O)[nH]c1=O` [Example 2, 1-[(Cyclopent-3-en-1-yl)methyl]-5-ethyl-6-(3,5-dimethylphenylthio)-2,4-pyrimidinedione] was tested, and the S.I. ([1]; no run marker) was 60,930 and the CD50 ([2]; no run marker) was 7.86.

For `Cc1cc(C)cc(Sc2c(C(C)C)c(=O)[nH]c(=O)n2CC2CC=CC2)c1` [Example 4, 1-[(Cyclopent-3-en-1-yl)methyl]-5-isopropyl-6-(3,5-dimethylphenylthio) -2,4-pyrimidinedione], the S.I. [1, 3] was 2,111 and the CD50 [2, 3] was 11.40.

In the case of `CCc1c(Sc2cc(C)cc(C)c2)n(CC2=CCC(CO)C2)c(=O)[nH]c1=O` (centres unmarked) [Example 7, 1-[(4-Hydroxymethylcyclopent-1-en-1-yl)methyl]-5-ethyl-6-(3,5-dimethylphenylthio)-2,4-pyrimidinedione], the S.I. ([1]; no run marker) is reported as 3,004 and the CD50 ([2]; no run marker) is reported as 7.69.

With `Cc1cc(C)cc(Sc2c(C(C)C)c(=O)[nH]c(=O)n2CC2=CCC(CO)C2)c1` (centres unmarked) [Example 9, 1-[(4-Hydroxymethylcyclopent-1-en-1-yl)methyl]-5-isopropyl-6-(3,5-di-methylphenylthio)-2,4-pyrimidinedione] the S.I. ([1]; no run marker) was 16,785 and the CD50 ([2]; no run marker) was 8.51.

For `CCc1c(Oc2cc(C)cc(C)c2)n(CC2CC=CC2)c(=O)[nH]c1=O` [Example 14, 1-[(Cyclopent-3-en-1-yl)methyl]-5-ethyl-6-(3,5-dimethylphenoxy)-2,4-pyrimidinedione], the S.I. [1, 4] was 400,238 and the CD50 [2, 4] was 16.81.

With `Cc1cc(C)cc(Oc2c(C(C)C)c(=O)[nH]c(=O)n2CC2CC=CC2)c1` [Example 15, 1-[(Cyclopent-3-en-1-yl)methyl]-5-isopropyl-6-(3,5-dimethylphenoxy)-2,4-pyrimidinedione] the S.I. [1, 3] was 1,624 and the CD50 [2, 3] was 10.07.

`CCc1c(C(=O)c2cc(C)cc(C)c2)n(CC2CC=CC2)c(=O)[nH]c1=O` [Example 16, 1-[(Cyclopent-3-en-1-yl)methyl]-5-ethyl-6-(3,5-dimethylbenzoyl)-2,4-pyrimidinedione] gave a CD50 [2, 5] of 1.52.

With `Cc1cc(C)cc(C(=O)c2c(C(C)C)c(=O)[nH]c(=O)n2CC2CC=CC2)c1` [Example 17, 1-[(Cyclopent-3-en-1-yl)methyl]-5-isopropyl-6-(3,5-dimethylbenzoyl)-2,4-pyrimidinedione] the S.I. [1, 3] was 3,615 and the CD50 [2, 3] was 19.16.

`CCc1c(Oc2cc(C)cc(C)c2)n(CC2=CCC(CO)C2)c(=O)[nH]c1=O` (centres unmarked) [Example 18, 1-[(4-Hydroxymethylcyclopent-1-en-1-yl)methyl]-5-ethyl-6-(3,5-dimethyl-phenoxy)-2,4-pyrimidinedione] was tested, and the S.I. ([1]; no run marker) was 1,131 and the CD50 ([2]; no run marker) was 12.78.

With `CCc1c(Oc2cc(C)cc(C)c2)n(CC2=CCCC2CO)c(=O)[nH]c1=O` (centres unmarked) [Example 19, 1-[(5-Hydroxymethylcyclopent-1-en-1-yl)methyl]-5-ethyl-6-(3,5-dimethyphenoxy)-2,4-pyrimidinedione] the S.I. ([1]; no run marker) was 1,384 and the CD50 ([2]; no run marker) was 55.37.

`Cc1cc(C)cc(Sc2c(C(C)C)c(=O)[nH]c(=O)n2CC2CCCC2)c1` [Example 20, 1-[(Cyclopentyl)methyl]-5-isopropyl-6-(3,5-dimethyphenylthio)-2,4-pyrimidinedione] was tested, and the S.I. [1, 4] was 24,264 and the CD50 [2, 4] was 11.38.

For `Cc1cc(C)cc(Oc2c(C(C)C)c(=O)[nH]c(=O)n2CC2CCCC2)c1` [Example 21, 1-(Cyclopentyl)methyl-5-isopropyl-6-(3,5-dimethylphenoxy)-2,4-pyrimidinedione], the S.I. [1, 4] was 3,089 and the CD50 [2, 4] was 10.04.

In the case of `Cc1cc(C)cc(C(=O)c2c(C(C)C)c(=O)[nH]c(=O)n2CC2CCCC2)c1` [Example 22, 1-(Cyclopentyl)methyl-5-isopropyl-6-(3,5-dimethylbenzoyl)-2,4-pyrimidinedione], the CD50 [2, 4] is reported as 9.97.

For `CCc1c(C(=O)c2cc(C)cc(C)c2)n(CC2CCCC2)c(=O)[nH]c1=O` [Example 23, 1-(Cyclopentyl)methyl-5-ethyl-6-(3,5-dimethylbenzoyl)-2,4-pyrimidinedione], the S.I. [1, 6] was > 384,615 and the CD50 [2, 6] was over 100.

For `CCc1c(Sc2cc(C)cc(C)c2)n(CC2=CCC(CO)(CO)C2)c(=O)[nH]c1=O` [Example 25, 1-{[4-Bis(hydroxymethyl)cyclopent-1-en-1-yl]methyl}-5-ethyl-6-(3,5-dimethyl-phenylthio)-2,4-pyrimidinedione], the S.I. ([1]; no run marker) was 2,762 and the CD50 ([2]; no run marker) was 14.64.

For `CCc1c(C(=O)c2cc(C)cc(C)c2)n(CCC2=CCCC2)c(=O)[nH]c1=O` [Example 35, 1-[2-(Cyclopent-1-en-1-yl)ethyl]-5-ethyl-6-(3,5-dimethylbenzoyl)-2,4-pyrimidinedione], the S.I. [1, 6] was 9,958 and the CD50 [2, 6] was 28.58.

For `CCc1c(C(=O)c2cc(C)cc(C)c2)n(CCC2CC=CC2)c(=O)[nH]c1=O` [Example 36, 1-[2-(Cyclopent-3-en-1-yl)ethyl]-5-ethyl-6-(3,5-dimethylbenzoyl)-2,4-pyrimidinedione], the S.I. [1, 6] was 30,294 and the CD50 [2, 6] was 10.30.

For `Cc1cc(C)cc(C(=O)c2c(C(C)C)c(=O)[nH]c(=O)n2CCC2CC=CC2)c1` [Example 37, 1-[2-(Cyclopent-3-en-1-yl)ethyl]-5-isopropyl-6-(3,5-dimethylbenzoyl)-2,4-pyrimidinedione], the S.I. [1, 6] was 13,377 and the CD50 [2, 6] was 9.23.

`CCc1c(C(=O)c2cc(C)cc(C)c2)n(CCC2C=CCC2)c(=O)[nH]c1=O` (centres unmarked) [Example 40, 1-{2-(Cyclopent-2-en-1-yl)ethyl]-5-ethyl-6-(3,5-dimethylbenzoyl)-2,4-pyrimidinedione] was tested, and the S.I. [1, 7] was > 27,346 and the CD50 [2, 7] was 7.11.

`Cc1cc(C)cc(Oc2c(C(C)C)c(=O)[nH]c(=O)n2CCC2C=CCC2)c1` (centres unmarked) [Example 42, 1-[2-(Cyclopent-2-en-1-yl)ethyl]-5-isopropyl-6-(3,5-dimethylphenoxy)-2,4-pyrimidinedione] was tested, and the S.I. [1, 7] was 2,353 and the CD50 [2, 7] was 7.53.

With `CCc1c(C(=O)c2cc(C)cc(C)c2)n(CCC2CCCC2)c(=O)[nH]c1=O` [Example 44, 1-(2-Cyclopentyl)ethyl-5-ethyl-6-(3,5-dimethylbenzoyl)-2,4-pyrimidinedione] the S.I. [1, 7] was 5,958 and the CD50 [2, 7] was 8.58.

`CCc1c(Sc2ccccc2)n(CC2CC2(CO)CO)c(=O)[nH]c1=O` (centres unmarked) [Example 48, 1-[2-Bis(hydroxymethyl)cyclopropane-1-yl]methyl-5-ethyl-6-phenylthio-2,4-pyrimidinedione] showed a S.I. [1, 5] of 923 and a CD50 [2, 5] of 96.95.

For `CCc1c(Sc2cc(C)cc(C)c2)n(CC2CC2(CO)CO)c(=O)[nH]c1=O` (centres unmarked) [Example 49, 1-[2-Bis(hydroxymethyl)cyclopropane-1-yl]methyl-5-ethyl-(3,5-dimethylphenylthio)-2,4-pyrimidinedione], the S.I. [1, 5] was 18,271 and the CD50 [2, 5] was 21.56.

In the case of `CCc1c(Oc2cc(C)cc(C)c2)n(CC2CC2(CO)CO)c(=O)[nH]c1=O` (centres unmarked) [Example 50, 1-[2-Bis(hydroxymethyl)cyclopropane-1-yl]methyl-5-ethyl-6-(3,5-dimethylphenoxy)-2,4-pyrimidinedione], the S.I. [1, 5] is reported as 7,763 and the CD50 [2, 5] is reported as 111.79.

For `CCc1c(C(=O)c2cc(C)cc(C)c2)n(CC2CC2(CO)CO)c(=O)[nH]c1=O` (centres unmarked) [Example 51, 1-[2-Bis(hydroxymethyl)cyclopropane-1-yl]methyl-5-ethyl-6-(3,5-dimethylbenzoyl)-2,4-pyrimidinedione], the S.I. [1, 5] was 12,165 and the CD50 [2, 5] was 128.95.

For `CC(C)c1c(Sc2ccccc2)n(CC2CC2(CO)CO)c(=O)[nH]c1=O` (centres unmarked) [Example 52, 1-[2-Bis(hydroxymethyl)cyclopropane-1-yl]methyl-5-isopropyl-6-phenylthio-2,4-pyrimidinedione], the S.I. [1, 5] was 1,496 and the CD50 [2, 5] was 104.12.

For `Cc1cc(C)cc(Sc2c(C(C)C)c(=O)[nH]c(=O)n2CC2CC2(CO)CO)c1` (centres unmarked) [Example 53, 1-[2-Bis(hydroxymethyl)cyclopropane-1-yl]methyl-5-isopropyl-6-(3,5-dimethylphenylthio)-2,4-pyrimidinedione], the S.I. [1, 5] was 7,199 and the CD50 [2, 5] was 13.39.

`Cc1cc(C)cc(Oc2c(C(C)C)c(=O)[nH]c(=O)n2CC2CC2(CO)CO)c1` (centres unmarked) [Example 54, 1-[2-Bis(hydroxymethyl)cyclopropane-1-yl]methyl-5-isopropyl-6-(3,5-dimethylphenoxy)-2,4-pyrimidinedione] was tested, and the S.I. [1, 5] was 3,004 and the CD50 [2, 5] was 7.69.

`Cc1cc(C)cc(C(=O)c2c(C(C)C)c(=O)[nH]c(=O)n2CC2CC2(CO)CO)c1` (centres unmarked) [Example 55, 1-[2-Bis(hydroxymethyl)cyclopropane-1-yl]methyl-5-isopropyl-6-(3,5-dimethylbenzoyl)-2,4-pyrimidinedione] was tested, and the S.I. [1, 5] was 21,806 and the CD50 [2, 5] was 131.71.
